pIC50: −log10 of the molar value. ≈ marks a conversion by molar mass, not a printed value.
How the values were obtained:
[1] = tested on: HL-60; assay: Cytotoxicity against human HL60 cells; type: functional, cell-based
[2] = tested on: Bacillus subtilis; assay: Antimicrobial activity against Bacillus subtilis NBRC 3134; type: functional

| MIC [2] [µg/mL] | Compound | pIC50 [1] |
| --- | --- | --- |
|  | CCCCCC[C@H]1C(=O)O[C@H](C)[C@H](NC(=O)c2cccc(NC=O)c2O)C(=O)O[C@@H](C)[C@@H]1OC(=O)CC(C)C [ANTIMYCIN A] | 4.35 |
| 10 (≈ 14.2 µM) | C[C@@H]1Cc2c(c(O)c3c(=O)cc4oc5c(O)cc(O[C@@H]6O[C@H](CO)[C@@H](O)[C@H](O)[C@H]6O)c6c(=O)c7c8c(c56)c4c3c2O[C@@]8(O)[C@@H](C)O[C@@H]7C)[C@@H](C)O1 [VIRIDAPHIN A1 GLUCOSIDE] | 4.64 |

— ChEMBL document CHEMBL1817637, “Viridaphin A₁ glucoside, a green pigment possessing cytotoxic and antibacterial activity from the aphid Megoura crassicauda” (J Nat Prod, 2011)
